Results as given in BindingDB's records for doi:10.1016/j.ejmech.2014.01.004 (Future University, 2014).

Target: T1, Dihydrofolate reductase (Bos taurus, UniProt P00376)
T1 sequence (P00376 whole entry): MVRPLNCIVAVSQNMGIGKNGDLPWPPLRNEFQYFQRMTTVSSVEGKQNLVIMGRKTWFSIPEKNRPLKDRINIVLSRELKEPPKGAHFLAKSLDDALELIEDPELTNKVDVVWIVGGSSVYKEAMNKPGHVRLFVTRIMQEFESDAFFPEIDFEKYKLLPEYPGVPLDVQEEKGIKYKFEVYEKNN
Test: Inhibition of bovine liver DHFR measured for every 1 min of 10 mins

| SMILES | IC50 |
| --- | --- |
| Clc1cc2c(cc1Cl)N=C(c1ccc(Br)cc1)C1CCCC(=Cc3ccc(Br)cc3)C1=N2 (configuration not stated) | 100 nM |
| COc1ccc(C=C2CCCC3C2=Nc2cc(C)c(C)cc2N=C3c2ccc(OC)cc2)cc1 (configuration not stated) | 100 nM |
